IC50 data for 19 compounds are collected here from patent US11919908B2, “Substituted pyrrolo[2,3-d]pyrimidine compounds as JAK2 V617F inhibitors” (Incyte Corporation, priority 2020, dated 2024).

Molecules are shown by their SMILES.

Test [1] has as its target T1, catalytic domain (JH1) of human JAK2 (Homo sapiens, UniProt O60674).
T1 construct: catalytic domain (JH1, amino acids 826-1132) of human JAK2; FLAG (N); purchased Carna Biosciences 08-445-20N; host or cells: baculovirus expression system
The test can be described thus: JAK2 LanthaScreen JH1 Binding Assay. As to conditions: 50 nM Fluorescent JAK2-JH1 Tracer, 2 hours at 25° C. The method, boiled down:
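TR-FRET tracer-displacement binding using N-terminal FLAG-tagged, biotinylated JH1 (aa 826-1132, baculovirus-expressed) at 1.5 nM, with 50 nM fluorescent tracer and 0.5 nM streptavidin-Tb. Buffer was 50 mM Tris pH 7.5, 10 mM MgCl2, 5 mM DTT, 2 h at 25° C. Non-specific binding used 2 mM ATP; IC50 came from four-parameter fits.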

Test [2] addresses T2, pseudo-kinase domain (JH2) of human V617F mutant JAK2 (Homo sapiens, UniProt O60674, F794H/V617F/W659A/W777A).
T2 construct: pseudo-kinase domain (JH2, amino-acids 536-812 with 3 surface mutations W659A, W777A, F794H); His (C); purchased BPS Bioscience 79498; host or cells: baculovirus expression system
Kind of test: JAK2 LanthaScreen JH2-V617F Binding Assay. To be noted: 50 nM Fluorescent JAK2-JH2 Tracer, 1 hour at 25° C. The gist of the method: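 Biotinylated His-Avi-tagged JH2 domain (aa 536-812, V617F plus 3 surface mutations; 0.26 nM), baculovirus-expressed, incubated 1 hour at 25° C with compound, 50 nM fluorescent JH2 tracer and 0.25 nM streptavidin-Tb in pH 7.5 Tris buffer. Tracer displacement read by LanthaScreen TR-FRET; non-specific binding with 2 mM ATP; four-parameter IC50.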
In general terms: Time-resolved FRET reads energy transfer from a long-lived donor to a nearby acceptor.

The target in test [3] is T3, pseudo-kinase domain (JH2) of human Wild Type JAK2 (Homo sapiens, UniProt O60674, F794H/W659A/W777A).
T3 construct: pseudo-kinase domain (JH2, amino-acids 536-812 with 3 surface mutations W659A, W777A, F794H); His (C); purchased BPS Bioscience 79463; host or cells: baculovirus expression system
The test can be described thus: JAK2 LanthaScreen JH2-WT Binding Assay. As to conditions: 50 nM Fluorescent JAK2-JH2 Tracer, 1 hour at 25° C. The method, boiled down: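 Biotinylated His-Avi-tagged JAK2 JH2 (aa 536-812, three surface mutations; 0.145 nM) competed with 50 nM fluorescent tracer, using 0.25 nM streptavidin-Tb, in pH 7.5 Tris buffer for 1 h at 25° C.; non-specific binding was set with 2 mM ATP. TR-FRET read; IC50 from four-parameter fit.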

T2 sequence (O60674 536-812 V617F/W659A/W777A/F794H): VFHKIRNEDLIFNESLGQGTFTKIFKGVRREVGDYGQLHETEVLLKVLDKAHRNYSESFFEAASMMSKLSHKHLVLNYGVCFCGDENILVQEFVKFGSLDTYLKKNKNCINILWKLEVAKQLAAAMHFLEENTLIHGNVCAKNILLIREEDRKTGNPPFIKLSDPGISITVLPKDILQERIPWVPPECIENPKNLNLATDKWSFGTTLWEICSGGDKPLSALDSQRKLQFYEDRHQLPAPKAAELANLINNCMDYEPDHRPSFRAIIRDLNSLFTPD
T3 sequence (O60674 536-812 W659A/W777A/F794H): as the sequence (O60674 536-812 V617F/W659A/W777A/F794H) above, with F82V counted along it
T1 sequence (O60674 826-1132): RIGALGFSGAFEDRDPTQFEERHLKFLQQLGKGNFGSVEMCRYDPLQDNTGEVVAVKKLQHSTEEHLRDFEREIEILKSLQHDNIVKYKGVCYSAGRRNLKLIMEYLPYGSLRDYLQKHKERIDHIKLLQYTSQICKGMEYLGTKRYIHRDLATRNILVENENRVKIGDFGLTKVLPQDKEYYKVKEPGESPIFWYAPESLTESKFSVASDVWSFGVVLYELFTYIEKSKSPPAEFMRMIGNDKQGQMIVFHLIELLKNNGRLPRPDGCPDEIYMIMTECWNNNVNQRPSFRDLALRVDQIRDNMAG

On to `COc1nn(Cc2ccc(C(=O)O)cc2)cc1-c1c(-c2ccc(S(=O)(=O)N(C)C)cc2)[nH]c2nc(N)[nH]c(=O)c12` [Example 50], for which the results for the IC50 in test [1], in test [2] and in test [3] were greater than 2500 nM, no more than 100 nM and no more than 100 nM, respectively.
In the case of `CN(C)S(=O)(=O)c1ccc(-c2[nH]c3nc(N)[nH]c(=O)c3c2-c2cnn(Cc3cccc(C(=O)O)c3)c2)cc1` [Example 51, 3-((4-(2-amino-6-(4-(N,N-dimethylsulfamoyl)phenyl)-4-oxo-4,7-dihydro-3H-pyrrolo[2,3-d]pyrimidin-5-yl)-1H-pyrazol-1-yl)methyl)benzoic acid], the half-maximal inhibitory concentration (IC50) in test [1] was in the range of 1000 to 2500 nM; in test [2], 500 to 1000 nM; in test [3] it was 500 to 1000 nM.
As for `CN(C)S(=O)(=O)c1ccc(-c2[nH]c3nc(N)[nH]c(=O)c3c2-c2cnn(Cc3ccc(C(=O)O)cc3)c2)cc1` [Example 52, 4-((4-(2-amino-6-(4-(N,N-dimethylsulfamoyl)phenyl)-4-oxo-4,7-dihydro-3H-pyrrolo[2,3-d]pyrimidin-5-yl)-1H-pyrazol-1-yl)methyl)benzoic acid], the 50% inhibitory concentration (IC50) in test [1] was greater than 2500 nM; in test [2] it was 100 to 500 nM; in test [3], 100 to 500 nM.
As to `COc1ccccc1-c1c(-c2ccc(CN3CCC(S(C)(=O)=O)CC3)cc2)[nH]c2nc(N)[nH]c(=O)c12` [Example 53], the figures for the IC50 in test [1], in test [2] and in test [3] were greater than 2500 nM, 100 to 500 nM and 100 to 500 nM, respectively.
Take `COc1ccccc1-c1c(-c2ccc(C(=O)N3CCOCC3)cc2)[nH]c2nc(N)[nH]c(=O)c12` [Example 54, 2-Amino-5-(2-methoxyphenyl)-6-(4-(morpholine-4-carbonyl)phenyl)-3,7-dihydro-4H-pyrrolo[2,3-d]pyrimidin-4-one]: the half-inhibitory concentration (IC50) in test [1] is greater than 2500 nM; in test [2], 500 to 1000 nM; in test [3], 500 to 1000 nM.
With `CCc1c(-c2ccccc2)[nH]c2nc(N)[nH]c(=O)c12` [Example 55, 2-Amino-5-ethyl-6-phenyl-3,7-dihydro-4H-pyrrolo[2,3-d]pyrimidin-4-one], the IC50 in test [1], in test [2] and in test [3] was greater than 2500 nM each time.
In the case of `COc1ccccc1-c1c(-c2ccc(C(=O)N(C)C)cc2)[nH]c2nc(N)[nH]c(=O)c12` [Example 56, 4-(2-Amino-5-(2-methoxyphenyl)-4-oxo-4,7-dihydro-3H-pyrrolo[2,3-d]pyrimidin-6-yl)-N,N-dimethylbenzamide], the IC50 is greater than 2500 nM in test [1], 500 to 1000 nM in test [2] and 500 to 1000 nM in test [3].
Consider `COc1ccccc1-c1c(-c2ccccc2)[nH]c2nc(N)[nH]c(=O)c12` [Example 57, 2-Amino-5-(2-methoxyphenyl)-6-phenyl-3,7-dihydro-4H-pyrrolo [2,3-d]pyrimidin-4-one], for which the IC50 in test [1] is greater than 2500 nM; in test [2], 1000 to 2500 nM; in test [3] it was 1000 to 2500 nM.
`Nc1nc2[nH]c(-c3ccccc3)c(-c3cccc(F)c3)c2c(=O)[nH]1` [Example 58, 2-Amino-5-(3-fluorophenyl)-6-phenyl-3,7-dihydro-4H-pyrrolo[2,3-d] pyrimidin-4-one]: the IC50 in test [1] was greater than 2500 nM; in test [2] it was 1000 to 2500 nM; in test [3] it was 1000 to 2500 nM.
Turning to `Nc1nc2[nH]c(-c3ccccc3)c(-c3ccccc3C(F)(F)F)c2c(=O)[nH]1` [Example 59, 2-Amino-6-phenyl-5-(2-(trifluoro-methyl)phenyl)-3,7-dihydro-4H-pyrrolo[2,3-d] pyrimidin-4-one], the IC50 in test [1], in test [2] and in test [3] was greater than 2500 nM throughout.
As to `Cc1cccc(-c2c(-c3ccc(C(=O)N(C)C)cc3)[nH]c3nc(N)[nH]c(=O)c23)c1` [Example 60, 4-(2-Amino-4-oxo-5-(3-tolyl)-4,7-dihydro-3H-pyrrolo[2,3-d]pyrimidin-6-yl)-N,N-dimethylbenzamide], the IC50 in test [1] was greater than 2500 nM; in test [2] it was 500 to 1000 nM; in test [3], 500 to 1000 nM.
Consider `Cc1cccc(-c2c(-c3cccc(C(=O)N(C)C)c3)[nH]c3nc(N)[nH]c(=O)c23)c1` [Example 61, 3-(2-Amino-4-oxo-5-(3-tolyl)-4,7-dihydro-3H-pyrrolo [2,3-d]pyrimidin-6-yl)-N,N-dimethyl-benzamide], for which the IC50 in test [1] was greater than 2500 nM; in test [2], 1000 to 2500 nM; in test [3], 1000 to 2500 nM.
For `COc1ccccc1-c1c(-c2ccc(S(C)(=O)=O)cc2)[nH]c2nc(N)[nH]c(=O)c12` [Example 62, 2-Amino-5-(2-methoxyphenyl)-6-(4-(methylsulfonyl)phenyl)-3,7-dihydro-4H-pyrrolo [2,3-d]pyrimidin-4-one], the IC50 in test [1] was greater than 2500 nM; in test [2] it was 500 to 1000 nM; in test [3], 1000 to 2500 nM.
In the same order, the values of `COc1ccccc1-c1c(-c2cccc(S(C)(=O)=O)c2)[nH]c2nc(N)[nH]c(=O)c12` [Example 63, 2-Amino-5-(2-methoxyphenyl)-6-(3-(methylsulfonyl)phenyl)-3,7-dihydro-4H-pyrrolo[2,3-d] pyrimidin-4-one] are greater than 2500 nM, greater than 2500 nM and greater than 2500 nM.
As to `CN(C)S(=O)(=O)c1ccc(-c2[nH]c3nc(N)[nH]c(=O)c3c2-c2ccccc2F)cc1` [Example 64, 4-(2-Amino-5-(2-fluorophenyl)-4-oxo-4,7-dihydro-3H-pyrrolo[2,3-d]pyrimidin-6-yl)-N,N-dimethylbenzene-sulfonamide], the IC50 in test [1], in test [2] and in test [3] was 100 to 500 nM throughout.
Turning to `COc1ccccc1-c1c(-c2ccc(S(=O)(=O)N(C)C)cc2)[nH]c2nc(N)[nH]c(=O)c12` [Example 65, 4-(2-Amino-5-(2-methoxyphenyl)-4-oxo-4,7-dihydro-3H-pyrrolo[2,3-d]pyrimidin-6-yl)-N,N-dimethylbenzene-sulfonamide], the IC50 is greater than 2500 nM in test [1], 100 to 500 nM in test [2] and 100 to 500 nM in test [3].
In the case of `COc1ccc(C)cc1-c1c(-c2ccc(S(=O)(=O)N(C)C)cc2)[nH]c2nc(N)[nH]c(=O)c12` [Example 66, 4-(2-Amino-5-(2-methoxy-5-methylphenyl)-4-oxo-4,7-dihydro-3H-pyrrolo[2,3-d]pyrimidin-6-yl)-N,N-dimethylbenzenesulfonamide], the values for the IC50 in test [1], in test [2] and in test [3] were greater than 2500 nM, 100 to 500 nM and 100 to 500 nM, respectively.
As to `Cc1cccc(-c2c(-c3ccc(S(=O)(=O)N(C)C)cc3)[nH]c3nc(N)[nH]c(=O)c23)c1F` [Example 67, 4-(2-Amino-5-(2-fluoro-3-methylphenyl)-4-oxo-4,7-dihydro-3H-pyrrolo[2,3-d]pyrimidin-6-yl)-N,N-dimethylbenzenesulfonamide], the IC50 in test [1], in test [2] and in test [3] was 100 to 500 nM throughout.
For the compound `COc1cccc(F)c1-c1c(-c2ccc(S(=O)(=O)N(C)C)cc2)[nH]c2nc(N)[nH]c(=O)c12` [Example 68, 4-(2-Amino-5-(2-fluoro-6-methoxyphenyl)-4-oxo-4,7-dihydro-3H-pyrrolo[2,3-d]pyrimidin-6-yl)-N,N-dimethylbenzenesulfonamide], the IC50 is greater than 2500 nM in test [1], 500 to 1000 nM in test [2] and 500 to 1000 nM in test [3].

By IC50 is commonly meant the midpoint of a concentration-inhibition curve. A higher IC50 goes with weaker potency.
